In a melting point compilation (Tetko et al.; mined from patent text by program, amines drawn as free bases though some values may be those of a salt):

| SMILES | melting point |
| --- | --- |
| CCOC(=O)C1CC2CC(=O)CCC2CN1C(=O)OC (centres undefined) | 79 to 80 °C |
| CN(CCCN1c2ccccc2CCc2ccccc21)C(=O)c1cccnc1 | 84 to 86 °C |
| CC(C)c1ccc(-c2cncc(-c3cccc(C(=O)O)c3)c2)cc1 | 155 to 156 °C |
| CC(=O)CCCn1c(C)nc2c(N)nc3ccccc3c21 | 194 to 196 °C |
| C=C(C)C(=O)OCCC#Cc1ccc(-c2ccc(OC(=O)C(=C)C)cc2)cc1 | 80 °C |
| Cc1ccc(S(=O)(=O)Nc2nc(-c3ccc([N+](=O)[O-])cc3)cs2)cc1 | > 250 °C |
| CC(=O)Oc1ccc(C(=O)O)cc1I | 173 to 174 °C |
| CCCCNc1cc(CNC(=O)OCC)cc(S(N)(=O)=O)c1Oc1ccccc1 | 105 to 107 °C |
| COc1ccc(CN(C)CCCc2ccc(NC(=O)c3cccc4c(=O)c5cccc(F)c5[nH]c34)cc2)cc1OC | 158 °C |
| O=C(O)Cc1c(-c2ccccc2)c2cc(Cl)c(Cl)cc2oc1=O | 222 to 223 °C |
| O=C(O)Cn1c(=O)c(=O)[nH]c2ccc3ccc(-n4cccc4CNC(=O)c4ccccc4)cc3c21 | > 180 °C |
| O=C(Nc1ccc2ccc(Cl)nc2n1)c1ccc2c(c1)OCO2 | 256 °C |
| COC(=O)C1(n2c(=O)c3ccccc3n(CCCCBr)c2=O)CCCC1 | 96 to 98 °C |
| CNC(=O)C(Cc1ccc(OCCc2nc(-c3ccccc3)oc2C)cc1)C(=O)OC (centres undefined) | 151 to 152 °C |
| COc1ccc(S(=O)(=O)Nc2cc(C(F)(F)F)ccc2Oc2ccccc2C(=O)O)cc1 | 139 °C |
| c1ccc(CSc2nc3ccccc3s2)cc1 | 39 to 40 °C |
| CCOC(=O)c1c(NC23CC4CC(CC(C4)C2)C3)n[nH]c1C | 190 to 203 °C |
| O=C(CN1CCCC1=O)NCc1cccc(CNC(=O)CN2CCCC2=O)n1 | 149 °C |
| COc1cccc(CC(=O)O)c1OCCCc1cn(-c2ccc(NC(=O)C(C)C)cn2)nc1C(C)C | 122 to 123 °C |
| CC1(C)CCC(C)(C)c2cc(CCCO)c(/C=C/c3ccc(C(=O)O)cc3)cc21 | 213 °C |
| O=C(c1ccccc1)c1cnn2c(-c3cccc(C(F)(F)F)c3)ccnc12 | 148 to 150 °C |
| CSC1=Nc2ccccc2Cn2nnnc21 | 105 to 108 °C |
| Nc1ncnc2nc(-c3cccc(Cl)c3)cnc12 | 260 to 264 °C |
| O=C(/C=C/c1ccn(S(=O)(=O)c2ccc(-n3cccn3)cc2)c1)NO | 161 to 167 °C |
| CCOC(=O)N1CCN(c2ccc(N3CC(CNC(C)=O)OC3=O)cc2F)CC1 (centres undefined) | 224 to 226 °C |

| SMILES | melting point |
| --- | --- |
| O=C1NC(=O)C(=Cc2ccc(-c3cc(C4CCCCC4)c4oc(C(Cl)(Cl)Cl)nc4c3)nc2)S1 | 253 °C |
| O=C(O)c1ccc(-c2ccc3cc(OCc4ccccc4)c(C45CC6CC(CC(C6)C4)C5)cc3c2)cc1O | 263 to 264 °C |
| CC(SC1COC(c2ccc(C(=O)Nc3ccc(SC(F)(F)F)cc3)cc2)OC1)C(O)(Cn1cncn1)c1ccc(F)cc1F (centres undefined) | 95 °C |
| CO[C@H](C)C(=O)N[C@H]1CC[C@H](CCN2CCN(c3nccc4c3OCC4)CC2)CC1 | 170 °C |
| CCC(=O)C(CC(=O)c1ccccc1)C(O)=S (centres undefined) | 110 to 112 °C |
| O=c1[nH][nH]c(C(F)(F)F)c1Cc1ccc(Cl)cc1 | 151 to 152 °C |
| NS(=O)(=O)c1ccc(NC(=O)C(=O)N2CCC(Cc3ccc(F)cc3)CC2)cc1 | 201 to 203 °C |
| COC(=O)c1ccccc1NC(=O)N1CCc2cc(S(=O)(=O)N3CCN(c4cccc(Cl)c4)CC3)ccc21 | 230 °C |
| Oc1cc(-c2ccccc2)cc(-c2ccccc2)c1 | 97 °C |
| O=[N+]([O-])c1cnn2c1-c1ccccc1NC2C=Cc1ccccc1 (centres undefined) | 171 to 173 °C |
| COc1ccccc1-n1c(=O)[nH]c2c(C(N)=O)nc(Nc3ccc(Cn4ccnc4)cc3)nc21 | 165 to 170 °C |
| N#Cc1ccccc1C1CNC([N+](=O)[O-])CCN1 (centres undefined) | 101 °C |
| CC(=O)N1CCN(CC(=O)Nc2ccc3[nH]c(=O)c4cccc5c4c3c2C5)CC1 | 155 to 157 °C |
| CCOc1ccc(C)c(N(Cc2ccccc2)C(=O)C(C)(C)Br)c1 | 87 to 88 °C |
| CC1(C)CCSc2ccc(CC#Cc3ccc(C(=O)O)c(O)c3)cc21 | 195 to 196 °C |
| CCCc1ccc2c(C(=O)O)ccc(OC)c2n1 | 214 to 217 °C |
| CCN1c2ncccc2C(N2CCCC2)=Nc2c(C)cc(C)nc21 | 138 to 140 °C |
| COC(=O)c1cc(F)ccc1Nc1ccnc2c(C(F)(F)F)cccc12 | 166 °C |
| O=C1c2ccccc2C(=O)N1CC(=O)N1c2ccccc2N(Cc2ccccc2)C(=O)[C@H]2CCC[C@H]21 (relative stereo) | 247 to 249 °C |
| CC(C)(C)OC(=O)N1CCC[C@H]1C(=O)N1CCN(C(=O)c2ccc(C#N)cc2)CC1 | 50 °C |
| CCCc1ccnc(C(=O)c2[nH]c3ccc(Cl)cc3c2CC(=O)O)c1 | 208 to 209 °C |
| CC(=O)OCC1=C(C(=O)O)N2C(=O)C(NC(=O)Cn3ccnc3S(C)=O)C2SC1 (centres undefined) | 220 °C |
| O=C(c1nc2ccccc2s1)C1CCN(CCc2ccc(F)cc2)CC1 | 97 to 98 °C |
| CCOC1CCC(=O)N1S(=O)(=O)C=Cc1ccc(OC)cc1 (centres undefined) | 134 to 136 °C |
| C#CCOc1ccc([N+](=O)[O-])cc1 | 108 to 110 °C |

| SMILES | melting point |
| --- | --- |
| CN(C)c1ccnc2c(NC(=O)c3c(Cl)cccc3Cl)cccc12 | 215 to 216 °C |
| O=c1c2cc(I)ccc2nc(Cl)n1-c1ccc(Cl)cc1 | 178 to 180 °C |
| N=C1CN(c2ccccc2)C(=N)O1 | 117 to 119 °C |
| Fc1cccc(Cl)c1-c1c(Cl)cc(-n2cncn2)nc1Cl | 210 °C |
| COC(=O)c1ccc(OC)c(Oc2ccccc2)c1 | 61 to 63 °C |
| CCOC(=O)C(=CC=C(SC)C(=O)c1ccc(N2CCCCC2)cc1)N(C)C | 113 °C |
| CC(=O)c1c(C)c2c(c(C)c1O)OC(C)(C)C(C)C2 (centres undefined) | 87 to 90 °C |
| CNC(=O)C(Cc1ccc(OC)cc1)NC(=O)C(C)(CC(C)C)c1ccccc1S (centres undefined) | 165 to 168 °C |
| CC(=O)c1ccc(OCCCN2CCC(c3noc4cc(F)ccc34)CC2)cc1C | 113 to 114 °C |
| NC(=O)CCC(C(=O)O)N1C(=O)c2cccc([N+](=O)[O-])c2C1=O (centres undefined) | 182 to 184 °C |
| COc1ccc(-c2ccc(C=CC(=O)O)s2)cc1C(C)(C)C | 218 to 219 °C |
| COc1cccc(CN2CCC3(CC2)CSC2=C(O3)c3ccccc3C(=O)C2=O)c1 | 129 to 131 °C |
| CS(=O)(=O)Nc1ccc(C(CC2CCCC2)C(=O)Nc2nccs2)cc1 (centres undefined) | 85 to 90 °C |
| N#Cc1cc2c(cn1)CCCC2 | 56 to 59 °C |
| COC(=O)CCCCCCCCCCCCCCC=O | 41.5 °C |
| CN1CCOC(C2=C(C#N)C(c3cccc(C#N)c3Br)c3c[nH]nc3N2)C1 (centres undefined) | 180 °C |
| CC1(C)C(N)CN1c1c(F)cc2c(=O)c(C(=O)O)cn(C3CC3)c2c1F (centres undefined) | 214 to 216 °C |
| Cc1c(C)c(N2C(=O)c3ccccc3C2=O)c(C)c2c1OC(C)(C)C2c1ccc(C(C)C)cc1 (centres undefined) | 180 to 181 °C |
| CCCn1c(N)c(N=Cc2ccc(OCC(=O)O)cc2)c(=O)n(CCC)c1=O | 179 to 180 °C |
| O=C1N=NN=C2N=CN=C12 | 230 to 234 °C |
| CC(=O)c1ccc(OCCCN2CCC(c3noc4cc(F)ccc34)CC2)c(N(C)C)c1 | 94 to 96 °C |
| COC(=O)c1ccc(-c2cc(-c3ccc(Cl)cc3)no2)cc1 | 225 to 226 °C |
| CS(=O)(=O)CC(=O)N[C@H]1CC[C@H](CCN2CCN(c3nccc4c3CCO4)CC2)CC1 | 260 °C |
| Cn1nc(-c2c(F)cccc2Cl)nc1-c1ccc(COc2ncc(Cl)cc2Cl)c(Cl)c1 | 153 to 155 °C |
| CC(C)Nc1cccnc1N1CCN(C(=O)c2ccc(C(=O)N(CCO)CCO)cc2)CC1 | 161 to 162 °C |

| SMILES | melting point |
| --- | --- |
| CN1C(=O)CC2(c3ccccc3)CCCC3OC32C1=O (centres undefined) | 135 to 140 °C |
| NS(=O)(=O)c1cc(C(=O)CCCC(=O)O)cc2c1OCC2 | 207 to 209 °C |
| CC[C@H](CCC(=O)OC(C)(C)C)C(=O)N[C@@H](Cc1ccccc1)C(=O)OC | 120 to 121 °C |
| O=[N+]([O-])c1ccc(CP2(=O)OCCO2)cc1 | 144 to 145 °C |
| CCN1CC2(CCN(Cc3ccccc3)CC2)OC1=O | 105 to 106 °C |
| O=C(O)c1cc2ccccc2c(=O)o1 | 241 to 242 °C |
| CC[Si](CC)(CC)CSc1cc(C(C)(C)C)c(O)c(C(C)(C)C)c1 | 58 to 60 °C |
| COc1ccc(-c2nc3cccc(C(=O)NC4CC5CCCC(C4)N5C)c3o2)cc1 (centres undefined) | 160 to 162 °C |
| O=c1[nH]ccc2c1ccc1cc[nH]c12 | 244 to 245 °C |
| Cc1nc[nH]c1C(=O)OC(C)C | 188 to 190 °C |
| CCOc1cc(C)ccc1C1CCN(CCCCNC(=O)c2ccc(NC(=O)c3ccc(Cl)cc3)cc2)CC1 | 254 °C |
| C=C(Sc1ccc(Br)cc1)S(=O)(=O)c1cccc([N+](=O)[O-])c1 | 109 to 111 °C |
| CNc1ncn(C)c1C(=O)NCc1ccccc1 | 110 to 111 °C |
| COC(=O)CCc1ccc(N2CCN(c3ccc(C(=N)NC(=O)OC)cc3)S2(=O)=O)cc1 | > 275 °C |
| Cc1cc(=O)n(-c2cc(C(=O)O)c(Cl)cc2F)c(=O)n1C | 236 to 239 °C |
| c1ccc(-c2nc3ccccc3n2-c2ccccc2)cc1 | 105 to 107 °C |
| Cc1cc(C(C)(CC(=O)c2ccccc2)c2ccccc2)ccc1O (centres undefined) | 137 °C |
| COc1ccc(-c2ccc3c(C(N)=O)nn(-c4ccc(S(N)(=O)=O)cc4)c3c2)cc1 | 258 to 259 °C |
| CC1(C)Oc2ccc([N+](=O)[O-])cc2[C@@H](O)[C@@H]1Br (relative stereo) | 114 to 116 °C |
| COC(=O)c1ccc(NCc2ccc(Cl)c(Cl)c2)cn1 | 158 to 161 °C |
| Cc1cc(-c2ncn3c(C(F)(F)F)cc(-c4ccc(C(F)(F)F)c(OCC(F)(F)F)c4)nc23)ccn1 | 189 °C |
| O=CC=CC=CC=CC=Cc1ccsc1 | 156 to 158 °C |
| COC(=O)CCCc1cc2nc(Cl)ccc2n1S(=O)(=O)c1cccc2cccnc12 | 64 °C |
| CC(=O)Nc1ccc(/C=C/c2cc(/C=C/c3ccc4cc[nH]c4c3)[nH]n2)cc1 | > 300 °C |
